Laboratory results as given in PubChem BioAssay AID248 (DTP/NCI, 2004).
Several values for one entry are separate records, joined by “and”; a condition that tells them apart may be missing. Identical values can stand only once. Toxic doses and inconclusive results are not listed. No stated cut-off is given here; in the data, active means T/C of 150% or more; inactive means T/C below 125%.

Tested on: L1210 leukemia ip in BDF1 mice, survival T/C
Assay: NCI In Vivo Anticancer Drug Screen. Data for tumor model L1210 Leukemia (intraperitoneal) in B6D2F1 (BDF1) mice
Settings: endpoint: mean survival time, higher = longer survival
How it was run: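 Read-out is survival time, reported as the treated-group measurement over the vehicle-control measurement.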

[1] = dose: 50.0 mg/kg/injection, schedule: Q01DX009 (ip), vehicle: Klucel (hydroxypropylcellulose) (HPC)
[2] = dose: 100.0 mg/kg/injection, schedule: Q01DX009 (ip), vehicle: Klucel (hydroxypropylcellulose) (HPC)
[3] = dose: 200.0 mg/kg/injection, schedule: Q01DX009 (ip), vehicle: Klucel (hydroxypropylcellulose) (HPC)
[4] = dose: 100.0 mg/kg/injection, schedule: Q04DX003 (ip), vehicle: Klucel (hydroxypropylcellulose) (HPC)
[5] = dose: 200.0 mg/kg/injection, schedule: Q04DX003 (ip), vehicle: Klucel (hydroxypropylcellulose) (HPC)
[6] = dose: 400.0 mg/kg/injection, schedule: Q04DX003 (ip), vehicle: Klucel (hydroxypropylcellulose) (HPC)
[7] = dose: 400.0 mg/kg/injection, schedule: Q01DX009 (ip), vehicle: Klucel (hydroxypropylcellulose) (HPC)
[8] = dose: 100.0 mg/kg/injection, schedule: Q04DX003 (ip), vehicle: saline with Tween-80
[9] = dose: 200.0 mg/kg/injection, schedule: Q04DX003 (ip), vehicle: saline with Tween-80
[10] = dose: 400.0 mg/kg/injection, schedule: Q04DX003 (ip), vehicle: saline with Tween-80
[11] = dose: 100.0 mg/kg/injection, schedule: Q01DX001 (ip), vehicle: carboxymethylcellulose (CMC)
[12] = dose: 100.0 mg/kg/injection, schedule: Q01DX009 (ip), vehicle: carboxymethylcellulose (CMC)
[13] = dose: 100.0 mg/kg/injection, schedule: Q04DX002 (ip), vehicle: carboxymethylcellulose (CMC)
[14] = dose: 200.0 mg/kg/injection, schedule: Q01DX001 (ip), vehicle: carboxymethylcellulose (CMC)
[15] = dose: 200.0 mg/kg/injection, schedule: Q01DX009 (ip), vehicle: carboxymethylcellulose (CMC)
[16] = dose: 200.0 mg/kg/injection, schedule: Q04DX002 (ip), vehicle: carboxymethylcellulose (CMC)
[17] = dose: 400.0 mg/kg/injection, schedule: Q01DX001 (ip), vehicle: carboxymethylcellulose (CMC)
[18] = dose: 400.0 mg/kg/injection, schedule: Q04DX002 (ip), vehicle: carboxymethylcellulose (CMC)
[19] = dose: 50.0 mg/kg/injection, schedule: Q01DX009 (ip), vehicle: saline with Tween-80
[20] = dose: 100.0 mg/kg/injection, schedule: Q01DX009 (ip), vehicle: saline with Tween-80
[21] = dose: 200.0 mg/kg/injection, schedule: Q01DX009 (ip), vehicle: saline with Tween-80
[22] = dose: 100.0 mg/kg/injection, schedule: Q01DX009 (ip), vehicle: saline sonified
[23] = dose: 200.0 mg/kg/injection, schedule: Q01DX009 (ip), vehicle: saline sonified
[24] = dose: 400.0 mg/kg/injection, schedule: Q01DX009 (ip), vehicle: saline sonified

Measured: T/C

O=C(Nc1ccc([N+](=O)[O-])cc1)OCC#CC#CCOC(=O)Nc1ccc([N+](=O)[O-])cc1
inactive: [1] 104 % of control | [2] 100 % of control | [3] 86 % of control

CC1(C)N=C(N)N=C(N)N1c1ccc(OCCCNS(=O)(=O)c2ccc(S(=O)(=O)F)cc2)c(Cl)c1
inactive: dose: 37.5 mg/kg/injection, schedule: Q04DX003 (ip), vehicle: saline with Tween-80 103 % of control | dose: 75.0 mg/kg/injection, schedule: Q04DX003 (ip), vehicle: saline with Tween-80 108 % of control | dose: 150.0 mg/kg/injection, schedule: Q04DX003 (ip), vehicle: saline with Tween-80 107 % of control

O=C(Nc1ccc(C2=NCCN2)cc1)c1ccc2cc(C(=O)Nc3ccc(C4=NCCN4)cc3)ccc2c1
inactive: dose: 15.0 mg/kg/injection, schedule: Q01DX Z (ip), vehicle: carboxymethylcellulose (CMC) 123 % of control | dose: 120.0 mg/kg/injection, schedule: Q01DX Z (ip), vehicle: carboxymethylcellulose (CMC) 120 % of control

CCn1c(C)cc(=O)n1-c1ccc([N+](=O)[O-])cc1
inactive: [4] 96 % of control | [5] 104 % of control | [6] 98 % of control

CCOC(COc1ccccc1)c1ccccc1 (stereo unspecified)
inactive: [2] 106 % of control | [3] 113 % of control | [7] 106 % of control

OC(C#CC(O)c1ccccc1)c1ccccc1 (stereo unspecified)
inactive: dose: 100.0 mg/kg/injection, schedule: Q01DX009 (ip), vehicle: saline 86 % of control | [8] 97 % of control | dose: 200.0 mg/kg/injection, schedule: Q01DX009 (ip), vehicle: saline 108 % of control | [9] 94 % of control | [10] 87 % of control

CCCCCCCC(=O)N(CC(C)C)CC(C)C
inactive: [11] 102 % of control | [12] 97 % of control | [13] 101 % of control and 102 % of control | dose: 100.0 mg/kg/injection, schedule: Q04DX003 (ip), vehicle: carboxymethylcellulose (CMC) 97 % of control | [14] 96 % of control | [15] 93 % of control and 98 % of control | [16] 97 % of control and 102 % of control | dose: 200.0 mg/kg/injection, schedule: Q04DX003 (ip), vehicle: carboxymethylcellulose (CMC) 97 % of control | [17] 91 % of control | [18] 94 % of control | dose: 400.0 mg/kg/injection, schedule: Q04DX003 (ip), vehicle: carboxymethylcellulose (CMC) 90 % of control

Nc1ncnc(N)n1
inactive: dose: 50.0 mg/kg/injection, schedule: Q01DX001 (ip), vehicle: carboxymethylcellulose (CMC) 98 % of control | [11] 101 % of control | [14] 101 % of control

CC(CC(=O)c1ccc(F)cc1)N1CCCCC1 (stereo unspecified)
inactive: [11] 95 % of control | [14] 98 % of control

CCOC(=O)CCCl
inactive: dose: 75.0 mg/kg/injection, schedule: Q01DX009 (ip), vehicle: Klucel (hydroxypropylcellulose) (HPC) 94 % of control | dose: 75.0 mg/kg/injection, schedule: Q04DX003 (ip), vehicle: saline 117 % of control | dose: 150.0 mg/kg/injection, schedule: Q01DX009 (ip), vehicle: Klucel (hydroxypropylcellulose) (HPC) 96 % of control | dose: 300.0 mg/kg/injection, schedule: Q01DX009 (ip), vehicle: Klucel (hydroxypropylcellulose) (HPC) 97 % of control | dose: 300.0 mg/kg/injection, schedule: Q04DX003 (ip), vehicle: saline 97 % of control

COc1ccc(CNCCCCO)cc1
inactive: dose: 50.0 mg/kg/injection, schedule: Q01DX009 (ip), vehicle: other 106 % of control | dose: 100.0 mg/kg/injection, schedule: Q01DX001 (ip), vehicle: other 104 % of control | dose: 100.0 mg/kg/injection, schedule: Q01DX009 (ip), vehicle: other 102 % of control | dose: 200.0 mg/kg/injection, schedule: Q01DX001 (ip), vehicle: other 106 % of control | dose: 200.0 mg/kg/injection, schedule: Q01DX009 (ip), vehicle: other 95 % of control | dose: 400.0 mg/kg/injection, schedule: Q01DX001 (ip), vehicle: other 97 % of control

CCCCCCCCC(=O)N(CCC)CCC
inactive: [12] 94 % of control and 97 % of control | [13] 96 % of control | [15] 93 % of control and 96 % of control | [16] 96 % of control | dose: 400.0 mg/kg/injection, schedule: Q01DX009 (ip), vehicle: carboxymethylcellulose (CMC) 94 % of control and 90 % of control | [18] 96 % of control

COc1cc(C(=O)NOCc2cccc(C(F)(F)F)c2)cc(OC)c1OC
inactive: [8] 98 % of control | [9] 98 % of control | [10] 101 % of control

C=CCOc1cc(C)ccc1C
inactive: [11] 98 % of control | [14] 95 % of control | [17] 98 % of control

O=C(Nc1ccc(Cl)cc1)NC1CCCCC1
inactive: [4] 92 % of control | [5] 92 % of control | [6] 92 % of control

CN(C)N=Nc1ccc(C#N)cc1
inactive: dose: 50.0 mg/kg/injection, schedule: Q01DX001 (ip), vehicle: saline with Tween-80 105 % of control | [19] 96 % of control | dose: 50.0 mg/kg/injection, schedule: Q04DX003 (ip), vehicle: saline with Tween-80 101 % of control | dose: 100.0 mg/kg/injection, schedule: Q01DX001 (ip), vehicle: saline with Tween-80 106 % of control | [20] 91 % of control | [8] 105 % of control | dose: 200.0 mg/kg/injection, schedule: Q01DX001 (ip), vehicle: saline with Tween-80 118 % of control | [21] 100 % of control | [9] 97 % of control | dose: 400.0 mg/kg/injection, schedule: Q01DX001 (ip), vehicle: saline with Tween-80 122 % of control | dose: 400.0 mg/kg/injection, schedule: Q01DX009 (ip), vehicle: saline with Tween-80 102 % of control | [10] 108 % of control

O=C(O)CC1CC=CCC1CC(=O)O (stereo unspecified)
inactive: [22] 95 % of control | [23] 101 % of control | [24] 104 % of control

CCN(CC)C(=S)c1ccc(C(=S)N(CC)CC)cc1
inactive: [4] 91 % of control | [5] 93 % of control | [6] 93 % of control

O=C(NCCCCCCNC(=O)Nc1cccc(C(F)(F)F)c1)Nc1cccc(C(F)(F)F)c1
inactive: [2] 97 % of control | [3] 92 % of control | [7] 92 % of control

CCOc1ccc2nc(/C=C/c3ccc(N(C)C)cc3)ccc2c1
inactive: [1] 94 % of control | [2] 94 % of control | [3] 92 % of control | [7] 100 % of control

CC(=O)Nc1ccc(-n2cnc3c(Cl)ncnc32)cc1C
inactive: [11] 87 % of control | [14] 91 % of control | [17] 91 % of control

O/N=C1\CCCc2sccc21
inactive: dose: 100.0 mg/kg/injection, schedule: Q01DX001 (ip), vehicle: steriod suspending solution 114 % of control | dose: 200.0 mg/kg/injection, schedule: Q01DX001 (ip), vehicle: steriod suspending solution 98 % of control | dose: 400.0 mg/kg/injection, schedule: Q01DX001 (ip), vehicle: steriod suspending solution 98 % of control

Cc1[nH]nc2c(=O)[nH]c3ccccc3c12
inactive: dose: 18.75 mg/kg/injection, schedule: Q01DX001 (ip), vehicle: Klucel (hydroxypropylcellulose) (HPC) 89 % of control | dose: 37.5 mg/kg/injection, schedule: Q01DX001 (ip), vehicle: Klucel (hydroxypropylcellulose) (HPC) 86 % of control

O=[N+]([O-])c1ccc2c3c(ccc(Br)c13)CC2
inactive: [22] 103 % of control | [4] 106 % of control | [23] 103 % of control | [5] 98 % of control | [24] 100 % of control | [6] 92 % of control

CCOC(=O)c1cc(Cl)cc(Cl)c1N/N=[N+](\C)[O-]
inactive: [19] 117 % of control | [20] 87 % of control | [21] 93 % of control

CCOc1ccc2ccccc2c1OP(=O)(OCC)OCC
inactive: dose: 100.0 mg/kg/injection, schedule: Q04DX002 (ip), vehicle: other 103 % of control | dose: 200.0 mg/kg/injection, schedule: Q04DX002 (ip), vehicle: other 113 % of control | dose: 400.0 mg/kg/injection, schedule: Q04DX002 (ip), vehicle: other 106 % of control
